From PubChem BioAssay (NCI)
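Cultured in 96-well plates, cells were exposed to test compound for 48 hours across five concentrations. TGI is the concentration that stops growth completely.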

The compounds below were run on 786-0 renal (assay: DTP human tumour cell line panel, 48 h).

SMILES | TGI
CC(C)(C)c1cc(Br)c(O)c(CN(Cc2cc(C(C)(C)C)cc(Br)c2O)C2CCCCC2)c1 | 27.7 µM
O=Cc1ccc(OCc2cccc(COc3ccc(/C=N\Nc4ccc([N+](=O)[O-])cc4[N+](=O)[O-])cc3)n2)cc1 | > 100 µM
O=C(N/N=C/c1ccccc1)c1c(-c2cccnc2)cnc2ccccc12 | > 100 µM
Cc1ccc(SCC(CF)OC(C)n2cnc3c(=O)[nH]c(N)nc32)cc1 (configuration not stated) | > 100 µM
COC(CNC(=O)C(C)NC(=O)CCc1ccccc1)OC (configuration not stated) | > 100 µM
COc1ccc(C(=C(Cl)c2ccccc2)c2ccc(OC)cc2)cc1 | > 100 µM

These compounds were tested on A498 renal (assay: DTP human tumour cell line panel, 48 h).

SMILES | TGI
CC(C)(C)c1cc(Br)c(O)c(CN(Cc2cc(C(C)(C)C)cc(Br)c2O)C2CCCCC2)c1 | 26.3 µM
O=Cc1ccc(OCc2cccc(COc3ccc(/C=N\Nc4ccc([N+](=O)[O-])cc4[N+](=O)[O-])cc3)n2)cc1 | > 100 µM
COc1ccc(C(=C(Cl)c2ccccc2)c2ccc(OC)cc2)cc1 | > 100 µM
NC(Cc1ccccc1)C(=O)N[C@H]1c2ccsc2/C(=N/O)[C@H]1O (some centres not stated) | > 100 µM

Each compound was assayed on A549 NSCLC (assay: DTP human tumour cell line panel, 48 h).

SMILES | TGI
CC(C)(C)c1cc(Br)c(O)c(CN(Cc2cc(C(C)(C)C)cc(Br)c2O)C2CCCCC2)c1 | 27.1 µM
O=Cc1ccc(OCc2cccc(COc3ccc(/C=N\Nc4ccc([N+](=O)[O-])cc4[N+](=O)[O-])cc3)n2)cc1 | > 100 µM
O=C(N/N=C/c1ccccc1)c1c(-c2cccnc2)cnc2ccccc12 | > 100 µM
Cc1ccc(SCC(CF)OC(C)n2cnc3c(=O)[nH]c(N)nc32)cc1 (configuration not stated) | > 100 µM
COC(CNC(=O)C(C)NC(=O)CCc1ccccc1)OC (configuration not stated) | > 100 µM
COc1ccc(C(=C(Cl)c2ccccc2)c2ccc(OC)cc2)cc1 | > 100 µM
O=C(NCCCNCCCNC(=O)c1cc(-c2ccccc2)nc2ccccc12)c1cc(-c2ccccc2)nc2ccccc12 | 3.34 µM
NC(Cc1ccccc1)C(=O)N[C@H]1c2ccsc2/C(=N/O)[C@H]1O (some centres not stated) | > 100 µM

Each compound was assayed on ACHN renal (assay: DTP human tumour cell line panel, 48 h).

SMILES | TGI
CC(C)(C)c1cc(Br)c(O)c(CN(Cc2cc(C(C)(C)C)cc(Br)c2O)C2CCCCC2)c1 | 28.1 µM
O=Cc1ccc(OCc2cccc(COc3ccc(/C=N\Nc4ccc([N+](=O)[O-])cc4[N+](=O)[O-])cc3)n2)cc1 | > 100 µM
O=C(N/N=C/c1ccccc1)c1c(-c2cccnc2)cnc2ccccc12 | > 100 µM
Cc1ccc(SCC(CF)OC(C)n2cnc3c(=O)[nH]c(N)nc32)cc1 (configuration not stated) | > 100 µM
COC(CNC(=O)C(C)NC(=O)CCc1ccccc1)OC (configuration not stated) | > 100 µM
COc1ccc(C(=C(Cl)c2ccccc2)c2ccc(OC)cc2)cc1 | > 100 µM
O=C(NCCCNCCCNC(=O)c1cc(-c2ccccc2)nc2ccccc12)c1cc(-c2ccccc2)nc2ccccc12 | 3.2 µM

These compounds were tested on BT-549 breast (assay: DTP human tumour cell line panel, 48 h).

SMILES | TGI
CC(C)(C)c1cc(Br)c(O)c(CN(Cc2cc(C(C)(C)C)cc(Br)c2O)C2CCCCC2)c1 | 29.2 µM
O=Cc1ccc(OCc2cccc(COc3ccc(/C=N\Nc4ccc([N+](=O)[O-])cc4[N+](=O)[O-])cc3)n2)cc1 | > 100 µM
O=C(N/N=C/c1ccccc1)c1c(-c2cccnc2)cnc2ccccc12 | > 100 µM
Cc1ccc(SCC(CF)OC(C)n2cnc3c(=O)[nH]c(N)nc32)cc1 (configuration not stated) | > 100 µM
COC(CNC(=O)C(C)NC(=O)CCc1ccccc1)OC (configuration not stated) | > 100 µM
COc1ccc(C(=C(Cl)c2ccccc2)c2ccc(OC)cc2)cc1 | > 100 µM
O=C(NCCCNCCCNC(=O)c1cc(-c2ccccc2)nc2ccccc12)c1cc(-c2ccccc2)nc2ccccc12 | > 23.7 µM
NC(Cc1ccccc1)C(=O)N[C@H]1c2ccsc2/C(=N/O)[C@H]1O (some centres not stated) | > 100 µM

What follows are compounds tested on CAKI-1 renal (assay: DTP human tumour cell line panel, 48 h).

SMILES | TGI
CC(C)(C)c1cc(Br)c(O)c(CN(Cc2cc(C(C)(C)C)cc(Br)c2O)C2CCCCC2)c1 | 24.7 µM
O=Cc1ccc(OCc2cccc(COc3ccc(/C=N\Nc4ccc([N+](=O)[O-])cc4[N+](=O)[O-])cc3)n2)cc1 | > 100 µM
O=C(N/N=C/c1ccccc1)c1c(-c2cccnc2)cnc2ccccc12 | > 100 µM
Cc1ccc(SCC(CF)OC(C)n2cnc3c(=O)[nH]c(N)nc32)cc1 (configuration not stated) | > 100 µM
COC(CNC(=O)C(C)NC(=O)CCc1ccccc1)OC (configuration not stated) | > 100 µM
COc1ccc(C(=C(Cl)c2ccccc2)c2ccc(OC)cc2)cc1 | > 100 µM
O=C(NCCCNCCCNC(=O)c1cc(-c2ccccc2)nc2ccccc12)c1cc(-c2ccccc2)nc2ccccc12 | 3.7 µM
NC(Cc1ccccc1)C(=O)N[C@H]1c2ccsc2/C(=N/O)[C@H]1O (some centres not stated) | > 100 µM

What follows are compounds tested on CCRF-CEM leukemia (assay: DTP human tumour cell line panel, 48 h).

SMILES | TGI
CC(C)(C)c1cc(Br)c(O)c(CN(Cc2cc(C(C)(C)C)cc(Br)c2O)C2CCCCC2)c1 | 26.6 µM
O=Cc1ccc(OCc2cccc(COc3ccc(/C=N\Nc4ccc([N+](=O)[O-])cc4[N+](=O)[O-])cc3)n2)cc1 | > 100 µM
O=C(N/N=C/c1ccccc1)c1c(-c2cccnc2)cnc2ccccc12 | > 100 µM
Cc1ccc(SCC(CF)OC(C)n2cnc3c(=O)[nH]c(N)nc32)cc1 (configuration not stated) | > 100 µM
COC(CNC(=O)C(C)NC(=O)CCc1ccccc1)OC (configuration not stated) | > 100 µM
COc1ccc(C(=C(Cl)c2ccccc2)c2ccc(OC)cc2)cc1 | > 100 µM
NC(Cc1ccccc1)C(=O)N[C@H]1c2ccsc2/C(=N/O)[C@H]1O (some centres not stated) | > 100 µM

What follows are compounds tested on COLO 205 colon (assay: DTP human tumour cell line panel, 48 h).

SMILES | TGI
CC(C)(C)c1cc(Br)c(O)c(CN(Cc2cc(C(C)(C)C)cc(Br)c2O)C2CCCCC2)c1 | 23.3 µM
O=Cc1ccc(OCc2cccc(COc3ccc(/C=N\Nc4ccc([N+](=O)[O-])cc4[N+](=O)[O-])cc3)n2)cc1 | > 100 µM
O=C(N/N=C/c1ccccc1)c1c(-c2cccnc2)cnc2ccccc12 | > 100 µM
Cc1ccc(SCC(CF)OC(C)n2cnc3c(=O)[nH]c(N)nc32)cc1 (configuration not stated) | > 100 µM
COC(CNC(=O)C(C)NC(=O)CCc1ccccc1)OC (configuration not stated) | > 100 µM
COc1ccc(C(=C(Cl)c2ccccc2)c2ccc(OC)cc2)cc1 | > 100 µM
NC(Cc1ccccc1)C(=O)N[C@H]1c2ccsc2/C(=N/O)[C@H]1O (some centres not stated) | > 100 µM

The compounds below were run on DU-145 prostate (assay: DTP human tumour cell line panel, 48 h).

SMILES | TGI
CC(C)(C)c1cc(Br)c(O)c(CN(Cc2cc(C(C)(C)C)cc(Br)c2O)C2CCCCC2)c1 | 26.8 µM
O=Cc1ccc(OCc2cccc(COc3ccc(/C=N\Nc4ccc([N+](=O)[O-])cc4[N+](=O)[O-])cc3)n2)cc1 | > 100 µM
O=C(N/N=C/c1ccccc1)c1c(-c2cccnc2)cnc2ccccc12 | > 100 µM
Cc1ccc(SCC(CF)OC(C)n2cnc3c(=O)[nH]c(N)nc32)cc1 (configuration not stated) | > 100 µM
COC(CNC(=O)C(C)NC(=O)CCc1ccccc1)OC (configuration not stated) | > 100 µM
COc1ccc(C(=C(Cl)c2ccccc2)c2ccc(OC)cc2)cc1 | > 100 µM
O=C(NCCCNCCCNC(=O)c1cc(-c2ccccc2)nc2ccccc12)c1cc(-c2ccccc2)nc2ccccc12 | 3.08 µM
NC(Cc1ccccc1)C(=O)N[C@H]1c2ccsc2/C(=N/O)[C@H]1O (some centres not stated) | > 100 µM

These compounds were tested on EKVX NSCLC (assay: DTP human tumour cell line panel, 48 h).

SMILES | TGI
CC(C)(C)c1cc(Br)c(O)c(CN(Cc2cc(C(C)(C)C)cc(Br)c2O)C2CCCCC2)c1 | 27.9 µM
O=Cc1ccc(OCc2cccc(COc3ccc(/C=N\Nc4ccc([N+](=O)[O-])cc4[N+](=O)[O-])cc3)n2)cc1 | > 100 µM
O=C(N/N=C/c1ccccc1)c1c(-c2cccnc2)cnc2ccccc12 | > 100 µM
COC(CNC(=O)C(C)NC(=O)CCc1ccccc1)OC (configuration not stated) | > 100 µM
COc1ccc(C(=C(Cl)c2ccccc2)c2ccc(OC)cc2)cc1 | > 100 µM
O=C(NCCCNCCCNC(=O)c1cc(-c2ccccc2)nc2ccccc12)c1cc(-c2ccccc2)nc2ccccc12 | 3.32 µM
NC(Cc1ccccc1)C(=O)N[C@H]1c2ccsc2/C(=N/O)[C@H]1O (some centres not stated) | > 100 µM

What follows are compounds tested on HCC-2998 colon (assay: DTP human tumour cell line panel, 48 h).

SMILES | TGI
O=Cc1ccc(OCc2cccc(COc3ccc(/C=N\Nc4ccc([N+](=O)[O-])cc4[N+](=O)[O-])cc3)n2)cc1 | > 100 µM
O=C(N/N=C/c1ccccc1)c1c(-c2cccnc2)cnc2ccccc12 | > 100 µM
Cc1ccc(SCC(CF)OC(C)n2cnc3c(=O)[nH]c(N)nc32)cc1 (configuration not stated) | > 100 µM
NC(Cc1ccccc1)C(=O)N[C@H]1c2ccsc2/C(=N/O)[C@H]1O (some centres not stated) | > 100 µM

What follows are compounds tested on HCT-116 colon (assay: DTP human tumour cell line panel, 48 h).

SMILES | TGI
CC(C)(C)c1cc(Br)c(O)c(CN(Cc2cc(C(C)(C)C)cc(Br)c2O)C2CCCCC2)c1 | 25 µM
O=Cc1ccc(OCc2cccc(COc3ccc(/C=N\Nc4ccc([N+](=O)[O-])cc4[N+](=O)[O-])cc3)n2)cc1 | > 100 µM
O=C(N/N=C/c1ccccc1)c1c(-c2cccnc2)cnc2ccccc12 | > 100 µM
Cc1ccc(SCC(CF)OC(C)n2cnc3c(=O)[nH]c(N)nc32)cc1 (configuration not stated) | > 100 µM
COC(CNC(=O)C(C)NC(=O)CCc1ccccc1)OC (configuration not stated) | > 100 µM
COc1ccc(C(=C(Cl)c2ccccc2)c2ccc(OC)cc2)cc1 | > 100 µM
NC(Cc1ccccc1)C(=O)N[C@H]1c2ccsc2/C(=N/O)[C@H]1O (some centres not stated) | > 100 µM

The compounds below were run on HCT-15 colon (assay: DTP human tumour cell line panel, 48 h).

SMILES | TGI
CC(C)(C)c1cc(Br)c(O)c(CN(Cc2cc(C(C)(C)C)cc(Br)c2O)C2CCCCC2)c1 | 25.4 µM
O=Cc1ccc(OCc2cccc(COc3ccc(/C=N\Nc4ccc([N+](=O)[O-])cc4[N+](=O)[O-])cc3)n2)cc1 | > 100 µM
O=C(N/N=C/c1ccccc1)c1c(-c2cccnc2)cnc2ccccc12 | > 100 µM
Cc1ccc(SCC(CF)OC(C)n2cnc3c(=O)[nH]c(N)nc32)cc1 (configuration not stated) | > 100 µM
COC(CNC(=O)C(C)NC(=O)CCc1ccccc1)OC (configuration not stated) | > 100 µM
COc1ccc(C(=C(Cl)c2ccccc2)c2ccc(OC)cc2)cc1 | > 100 µM
O=C(NCCCNCCCNC(=O)c1cc(-c2ccccc2)nc2ccccc12)c1cc(-c2ccccc2)nc2ccccc12 | > 100 µM
NC(Cc1ccccc1)C(=O)N[C@H]1c2ccsc2/C(=N/O)[C@H]1O (some centres not stated) | > 100 µM

What follows are compounds tested on HL-60(TB) leukemia (assay: DTP human tumour cell line panel, 48 h).

SMILES | TGI
CC(C)(C)c1cc(Br)c(O)c(CN(Cc2cc(C(C)(C)C)cc(Br)c2O)C2CCCCC2)c1 | 35.8 µM
O=Cc1ccc(OCc2cccc(COc3ccc(/C=N\Nc4ccc([N+](=O)[O-])cc4[N+](=O)[O-])cc3)n2)cc1 | > 100 µM
O=C(N/N=C/c1ccccc1)c1c(-c2cccnc2)cnc2ccccc12 | > 100 µM
Cc1ccc(SCC(CF)OC(C)n2cnc3c(=O)[nH]c(N)nc32)cc1 (configuration not stated) | > 100 µM
COC(CNC(=O)C(C)NC(=O)CCc1ccccc1)OC (configuration not stated) | > 100 µM
COc1ccc(C(=C(Cl)c2ccccc2)c2ccc(OC)cc2)cc1 | > 100 µM
O=C(NCCCNCCCNC(=O)c1cc(-c2ccccc2)nc2ccccc12)c1cc(-c2ccccc2)nc2ccccc12 | 3.16 µM
NC(Cc1ccccc1)C(=O)N[C@H]1c2ccsc2/C(=N/O)[C@H]1O (some centres not stated) | > 100 µM

These compounds were tested on HOP-62 NSCLC (assay: DTP human tumour cell line panel, 48 h).

SMILES | TGI
CC(C)(C)c1cc(Br)c(O)c(CN(Cc2cc(C(C)(C)C)cc(Br)c2O)C2CCCCC2)c1 | 28.5 µM
O=Cc1ccc(OCc2cccc(COc3ccc(/C=N\Nc4ccc([N+](=O)[O-])cc4[N+](=O)[O-])cc3)n2)cc1 | > 100 µM
O=C(N/N=C/c1ccccc1)c1c(-c2cccnc2)cnc2ccccc12 | > 100 µM
Cc1ccc(SCC(CF)OC(C)n2cnc3c(=O)[nH]c(N)nc32)cc1 (configuration not stated) | > 100 µM
COc1ccc(C(=C(Cl)c2ccccc2)c2ccc(OC)cc2)cc1 | > 100 µM
